Assay results taken from patent publication US20250296959A1, “B7-H3 TARGETING PEPTIDES AND CONSTRUCTS THEREOF” (Mariana Oncology Inc., priority 2024, published 2025).
Starred links: 1 amine or outer side, 2 acyl side, 3 side chain; linkers in the order of their positions; H or OH if unused. Positions of bridges follow the written chain, without caps; N, C: chain ends. Non-standard residues stand in square brackets, D forms with d. Residues, ends and D or L forms follow the SMILES beside them. Groups on a side chain read outwards from the residue. *: point of attachment. Ala(1-CH2CO2H-4-piperidyl) = N[C@@H](CC1CCN(CC(=O)O)CC1)C(=O)O; Ala(piperidin-4-yl) = O=C([C@H](CC1CCN([*:3])CC1)N[*:1])[*:2]; DOTA = O=C(O)CN1CCN(CC(=O)O)CCN(CC(=O)*)CCN(CC(=O)O)CC1; Phe(4-NHCONH2) = NC(=O)Nc1ccc(C[C@H](N)C(=O)O)cc1; Trp(5-F) = N[C@@H](Cc1c[nH]c2ccc(F)cc12)C(=O)O; X1 = C[C@@H](c1ccccc1)[C@H](N[*:1])C(=O)[*:2]; hCba = O=C([C@H](CCC1CCC1)N[*:1])[*:2]; Ala(4-THP) = N[C@@H](CC1CCOCC1)C(=O)O; Pip(CH2CO2H)Ala = not defined here; Val(3-OH) = CC(C)(O)[C@H](N)C(=O)O; hCha = N[C@@H](CCC1CCCCC1)C(=O)O; Aad = N[C@@H](CCCC(=O)O)C(=O)O; PEG4 = NCCOCCOCCOCCOCCC(=O)O; Tle = CC(C)(C)[C@H](N)C(=O)O; hLeu = CC(C)CC[C@H](N)C(=O)O; Dab = NCC[C@H](N)C(=O)O; Sar = CNCC(=O)O

Tests used:
[1] = target: T1, human 4lg B7-H3 (Homo sapiens, UniProt Q5ZPR3); test: Affinity determination by surface plasmon resonance (SPR) to 4Ig B7-H3; details: read-out: SPR KD—37° C.; 4Ig B7-H3; 37° C. flow cell temperature
T1 sequence (Q5ZPR3 29-534): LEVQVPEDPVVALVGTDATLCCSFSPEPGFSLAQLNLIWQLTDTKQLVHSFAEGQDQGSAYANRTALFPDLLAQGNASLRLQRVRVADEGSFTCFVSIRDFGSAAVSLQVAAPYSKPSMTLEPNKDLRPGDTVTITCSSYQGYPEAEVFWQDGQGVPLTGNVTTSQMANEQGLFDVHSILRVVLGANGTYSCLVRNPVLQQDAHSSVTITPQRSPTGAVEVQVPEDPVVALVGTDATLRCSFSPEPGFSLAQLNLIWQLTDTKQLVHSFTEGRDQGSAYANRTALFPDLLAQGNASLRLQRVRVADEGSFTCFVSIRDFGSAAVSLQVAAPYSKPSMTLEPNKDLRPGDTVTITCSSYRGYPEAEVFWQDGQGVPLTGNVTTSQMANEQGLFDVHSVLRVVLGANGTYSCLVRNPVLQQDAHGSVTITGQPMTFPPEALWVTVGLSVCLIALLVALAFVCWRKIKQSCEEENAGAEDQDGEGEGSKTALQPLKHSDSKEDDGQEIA

[2] = test system: Calu-6 cell line; test: Net internalization of [177Lu]Lu-labeled peptide in Calu-6 cells; format: cell-based, Human; details: 1 hour, 37° C., glycine pH 2.5 acid wash
How it was run: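 Peptide conjugate labeled with [177Lu]LuCl3 at pH ~5, 80 °C, 17–20 min, and purity checked by RP-HPLC. B7-H3-expressing human Calu-6 lung cancer cells at 5 million cells/mL in 1% PBSA. Internalized fraction: counts left after two 3 min 50 mM glycine pH 2.5 washes and NaOH lysis, gamma counted against bound fraction.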

[3] = test system: Calu-6 cell line; test: Cell associated (bound) fraction of [177Lu]Lu-labeled peptide in Calu-6 cells; format: cell-based, Human; details: 1 hour, 37° C.
How it was run: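 Peptide conjugate was labelled with [177Lu]LuCl3 in ammonium acetate pH ~5 at 80 °C for 17-20 min, with purity checked by RP-HPLC. Calu-6 suspensions (5 million cells/mL in 1% PBSA) were incubated with 0.8 μCi for 1 h at 37 °C. Cell pellets were gamma-counted after two cold PBS/BSA washes, giving the bound fraction against the unbound supernatant plus washes.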

[4] = target: B7-H3 on Calu-6 cells (human) (UniProt Q5ZPR3); test: 177Lu-labelled peptide on Calu-6 cells, % cell associated fraction; B = 25<%<=50

## CC(=O)N[C@@H](CCC(C)C)C(=O)N[C@@H](Cc1ccc(O)cc1)C(=O)N[C@H]1CSSC[C@@H](C(=O)N[C@@H](Cc2c[nH]c3ccc(F)cc23)C(=O)N[C@@H](Cc2ccccc2)C(=O)N[C@H](C(=O)N[C@H](CCCCNC(=O)[C@H](CCCC(=O)O)NC(=O)CN2CCN(CC(=O)O)CCN(CC(=O)O)CCN(CC(=O)O)CC2)C(=O)O)C(C)(C)O)NC(=O)[C@H](Cc2ccc(O)cc2)NC(=O)[C@H](C(C)C)NC(=O)[C@H](CC(=O)O)NC(=O)[C@H](CC2CCOCC2)NC(=O)[C@H](CC2CCNCC2)NC(=O)CNC(=O)[C@H](C(C)(C)C)NC1=O [compound 464, Ac-hLeu-Y-C-Tbg-G-PipAla-ThpA-D-V-Y-C-5FW-F-hydroxyVal-dLys(hGlu-DOTA)-COOH] (Ac-[hLeu]YC[Tle]G[Ala(piperidin-4-yl)][Ala(4-THP)]DVYC[Trp(5-F)]F[Val(3-OH)][dK]([Aad-DOTA])-OH; disulfide 3-11)
[1]
  Kd: < 1 nM
[2]
  % net internalization: A (%≤25)
[3]
  % cell associated fraction: C (%>50)

## CC(=O)N[C@@H](CCC(C)C)C(=O)N[C@@H](Cc1ccc(O)cc1)C(=O)N[C@H]1CSSC[C@@H](C(=O)N[C@@H](Cc2c[nH]c3ccc(F)cc23)C(=O)N[C@@H](Cc2ccccc2)C(=O)N[C@H](C(=O)N[C@H](CCCCNC(=O)CCOCCOCCOCCOCCNC(=O)CN2CCN(CC(=O)O)CCN(CC(=O)O)CCN(CC(=O)O)CC2)C(=O)O)C(C)(C)O)NC(=O)[C@H](Cc2ccc(O)cc2)NC(=O)[C@H](C(C)C)NC(=O)[C@H](CC(=O)O)NC(=O)[C@H](CC2CCOCC2)NC(=O)[C@H](CC2CCNCC2)NC(=O)CNC(=O)[C@H](C(C)(C)C)NC1=O [compound 465, Ac-hLeu-Y-C-Tbg-G-PipAla-ThpA-D-V-Y-C-5FW-F-hydroxyVal-dLys(PEG4-DOTA)-COOH] (Ac-[hLeu]YC[Tle]G[Ala(piperidin-4-yl)][Ala(4-THP)]DVYC[Trp(5-F)]F[Val(3-OH)][dK]([PEG4-DOTA])-OH; disulfide 3-11)
[1]
  Kd: < 1 nM
[2]
  % net internalization: A (%≤25)
[3]
  % cell associated fraction: B (25<%≤50)

## CC(=O)N[C@@H](CCC(C)C)C(=O)N[C@@H](Cc1ccc(O)cc1)C(=O)N[C@H]1CSSC[C@@H](C(=O)N[C@@H](Cc2c[nH]c3ccc(F)cc23)C(=O)N[C@H](C(=O)N[C@H](C(=O)N[C@H](CCC(=O)O)C(N)=O)C(C)(C)O)[C@@H](C)c2ccccc2)NC(=O)[C@H](Cc2ccc(O)cc2)NC(=O)[C@H](C(C)C)NC(=O)[C@H](CC(=O)O)NC(=O)[C@H](CC2CCN(C(=O)CCOCCOCCOCCOCCNC(=O)CN3CCN(CC(=O)O)CCN(CC(=O)O)CCN(CC(=O)O)CC3)CC2)NC(=O)[C@H](CC2CCNCC2)NC(=O)CNC(=O)[C@H](C(C)(C)C)NC1=O [compound 495, Ac-hLeu-Y-C-Tbg-G-PipAla-Pip(PEG4-DOTA)Ala-D-V-Y-C-5FW-[(2S, 3S)beta-Me-Phe]-hydroxyVal-dGlu-CONH2] (Ac-[hLeu]YC[Tle]G[Ala(piperidin-4-yl)][Ala(piperidin-4-yl)]([PEG4-DOTA])DVYC[Trp(5-F)][X1][Val(3-OH)][dE]-NH2; disulfide 3-11)
[1]
  Kd: < 1 nM
[2]
  % net internalization: A (%≤25)
[3]
  % cell associated fraction: C (%>50)

## CC(=O)N[C@@H](CCC(C)C)C(=O)N[C@@H](Cc1ccc(O)cc1)C(=O)N[C@H]1CSSC[C@@H](C(=O)N[C@@H](Cc2c[nH]c3ccc(F)cc23)C(=O)N[C@H](C(=O)N[C@H](C(=O)N[C@H](CCCCNC(=O)CN2CCN(CC(=O)O)CCN(CC(=O)O)CCN(CC(=O)O)CC2)C(=O)O)C(C)(C)O)[C@@H](C)c2ccccc2)NC(=O)[C@H](Cc2ccc(O)cc2)NC(=O)[C@H](C(C)C)NC(=O)[C@H](CC(=O)O)NC(=O)[C@H](CC2CCOCC2)NC(=O)[C@H](CC2CCN(CC(=O)O)CC2)NC(=O)CNC(=O)[C@H](C(C)(C)C)NC1=O [compound 497, Ac-hLeu-Y-C-Tbg-G-Pip(CH2COOH)Ala-ThpA-D-V-Y-C-5FW-[(2S, 3S)beta-Me-Phe]-hydroxyVal-dLys(DOTA)-COOH] (Ac-[hLeu]YC[Tle]G[Ala(1-CH2CO2H-4-piperidyl)][Ala(4-THP)]DVYC[Trp(5-F)][X1][Val(3-OH)][dK](DOTA)-OH; disulfide 3-11)
[1]
  Kd: < 1 nM
[2]
  % net internalization: A (%≤25)
[3]
  % cell associated fraction: C (%>50)

## CC(=O)N[C@@H](CCC(C)C)C(=O)N[C@@H](Cc1ccc(O)cc1)C(=O)N[C@H]1CSSC[C@@H](C(=O)N[C@@H](Cc2c[nH]c3ccc(F)cc23)C(=O)N[C@H](C(=O)N[C@H](C(=O)N[C@H](CCCCNC(=O)CN2CCN(CC(=O)O)CCN(CC(=O)O)CCN(CC(=O)O)CC2)C(=O)O)C(C)(C)O)[C@@H](C)c2ccccc2)NC(=O)[C@H](Cc2ccc(NC(N)=O)cc2)NC(=O)[C@H](C(C)C)NC(=O)[C@H](CC(=O)O)NC(=O)[C@H](CC2CCOCC2)NC(=O)[C@H](CC2CCN(CC(=O)O)CC2)NC(=O)CNC(=O)[C@H](C(C)(C)C)NC1=O [compound 499, Ac-hLeu-Y-C-Tbg-G-Pip(CH2COOH)Ala-ThpA-D-V-Aph(Cbm)-C-5FW-[(2S, 3S)beta-Me-Phe]-hydroxyVal-dLys(DOTA)-COOH] (Ac-[hLeu]YC[Tle]G[Ala(1-CH2CO2H-4-piperidyl)][Ala(4-THP)]DV[Phe(4-NHCONH2)]C[Trp(5-F)][X1][Val(3-OH)][dK](DOTA)-OH; disulfide 3-11)
[1]
  Kd: < 1 nM
[2]
  % net internalization: A (%≤25)
[3]
  % cell associated fraction: C (%>50)

## CC(=O)N[C@@H](CCC(C)C)C(=O)N[C@@H](Cc1ccc(O)cc1)C(=O)N[C@H]1CSSC[C@@H](C(=O)N[C@@H](Cc2c[nH]c3ccc(F)cc23)C(=O)N[C@H](C(=O)N[C@H](C(=O)N[C@H](CCCCNC(=O)[C@@H](CCC(=O)O)NC(=O)CN2CCN(CC(=O)O)CCN(CC(=O)O)CCN(CC(=O)O)CC2)C(=O)O)C(C)(C)O)[C@@H](C)c2ccccc2)NC(=O)[C@H](Cc2ccc(O)cc2)NC(=O)[C@H](C(C)C)NC(=O)[C@H](CC(=O)O)NC(=O)[C@H](CC2CCOCC2)NC(=O)[C@H](CC2CCNCC2)NC(=O)CNC(=O)[C@H](C(C)(C)C)NC1=O [compound 501, Ac-hLeu-Y-C-Tbg-G-PipAla-ThpA-D-V-Y-C-5FW-[(2S, 3S)beta-Me-Phe]-hydroxyVal-dLys(dGlu-DOTA)-COOH] (Ac-[hLeu]YC[Tle]G[Ala(piperidin-4-yl)][Ala(4-THP)]DVYC[Trp(5-F)][X1][Val(3-OH)][dK]([dE-DOTA])-OH; disulfide 3-11)
[1]
  Kd: < 1 nM
[2]
  % net internalization: B (25<%≤50)
[3]
  % cell associated fraction: C (%>50)

B1: Cpd 318 (peptide)
peptide: Ac-[hLeu]YCIG[Pip(CH2CO2H)Ala][Ala(4-THP)]DVYC[Trp(5-F)]F[Val(3-OH)][dK](DOTA)-OH
modifications: disulfide 3-11 (inferred); reading uncertain; also: printed as Ac-hLeu-Y-C-Ile-G-[Pip(CH2CO2H)Ala]-ThpA-D-V-Y-C-5FW-F-hydroxyVal-dLys(DOTA)-COOH; disulfide
[4]
  % cell associated fraction: 25 to 50%

## Ac-[hLeu]YC[Tle][Sar]K[Ala(4-THP)]DVYC[Trp(5-F)]F[Val(3-OH)][dK](DOTA)-OH (disulfide 3-11 (inferred)) [Cpd 348]
[4]
  % cell associated fraction: 25 to 50%

## Ac-[hLeu]YC[Tle]GK[Ala(4-THP)]DVYC[Trp(5-F)]F[Val(3-OH)][dK](DOTA)-NH2 (disulfide 3-11 (inferred)) [Cpd 366]
[4]
  % cell associated fraction: 25 to 50%

## Ac-[hCha]YC[Tle]GK[Ala(4-THP)]DVYC[Trp(5-F)]F[Val(3-OH)][dK](DOTA)-OH (disulfide 3-11 (inferred)) [Cpd 368]
[4]
  % cell associated fraction: 25 to 50%

## Ac-[hLeu]YC[Tle]G[Dab][Ala(4-THP)]DVYC[Trp(5-F)]F[Val(3-OH)][dK](DOTA)-OH (disulfide 3-11 (inferred)) [Cpd 371]
[4]
  % cell associated fraction: 25 to 50%

## Ac-[hCba]YC[Tle]GK[Ala(4-THP)]DVYC[Trp(5-F)]F[Val(3-OH)][dK](DOTA)-OH (disulfide 3-11 (inferred)) [Cpd 398]
[4]
  % cell associated fraction: 25 to 50%

B2: Cpd 428 (peptide)
peptide: Ac-[hLeu]YC[Tle]G[PipAla][Ala(4-THP)]DVYCXF[hydroxyVal][dK]([Glu-DOTA])-OH
modifications: disulfide 3-11 (inferred); not fully specified (residue 12); printed as Ac-hLeu-Y-C-Tbg-G-PipAla-ThpA-D-V-Y-C-5FW-F-hydroxyVal-dLys(Glu-DOTA)-COOH, disulfide
[4]
  % cell associated fraction: 25 to 50%
